Measured values taken from patent publication US5010097A, “Novel compounds” (Beecham Pharmaceuticals, priority 1987, dated 1991).

Molecular target: T1, human collagenase (human lung fibroblast cell line WI-38) (Homo sapiens, UniProt P03956)
T1 construct: purified from culture supernatants from the human lung fibroblast cell line, WI-38; endogenous in cells; host or cells: WI-38 human lung fibroblasts (enzyme purified from culture supernatants)
T1 sequence (P03956 100-469): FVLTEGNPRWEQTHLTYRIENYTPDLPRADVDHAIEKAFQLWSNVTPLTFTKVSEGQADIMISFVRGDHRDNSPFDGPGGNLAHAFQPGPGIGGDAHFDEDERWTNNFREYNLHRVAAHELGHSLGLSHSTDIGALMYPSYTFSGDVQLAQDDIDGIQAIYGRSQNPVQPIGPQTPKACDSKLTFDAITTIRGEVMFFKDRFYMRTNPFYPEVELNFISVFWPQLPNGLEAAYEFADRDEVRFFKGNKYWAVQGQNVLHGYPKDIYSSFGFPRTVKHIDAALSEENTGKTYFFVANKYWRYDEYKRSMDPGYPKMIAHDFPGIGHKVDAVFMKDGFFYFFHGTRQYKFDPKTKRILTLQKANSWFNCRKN
Test: Inhibition of Human Lung Fibroblast Collagenase (collagenase inhibitor assay, 14C-acetylated rat skin Type I collagen substrate)
Assay type: biochemical
Experimental: The test is performed essentially as in Cawston and Barrett Anal. Biochem. 99, 340-345 (1979). Compounds for testing are dissolved in methanol and added to purified human collagenase purified from culture supernatants from the human lung fibroblast cell line, WI-38, diluted in a suitable aqueous buffer. After a 5 min pre-incubation at 37° C., the assay tubes are cooled to 4° and ^14 C-acetylated rat skin Type I collagen is added. The assay tubes are incubated at 37° C. overnight. The ^14 C-collagen forms insoluble fibrils which are the substrate for the enzyme.
To terminate the assay, the assay tubes are spun at 12000 rpm for 25 min. Undigested ^14 C-collagen remains as insoluble fibrils and is pelleted, while digested ^14 C-collagen remains as soluble peptides in the supernatant. A sample of the supernatant is taken for liquid scintillation counting.
The activity of collagenase inhibitors (IC50 : 50% inhibitory concentration) is expressed as the concentration of compound that inhibits a known (standard) concentration of enzyme by 50%, or as the % inhibition of the collagen degradation caused by the known (standard) concentration of enzyme, at a stated concentration of the compound.

| IC50 (purified human collagenase from WI-38 culture supernatants, 14C-collagen fibrils, 5 min pre-incubation at 37 °C, then 37 °C overnight) | Inhibition (% inhibition of the collagen degradation) (at 1000 (column head nm), purified human collagenase from WI-38, 37 °C overnight) | SMILES |
| --- | --- | --- |
| 14 nM | – | CNC(=O)[C@H](Cc1ccc(OC)cc1)NC(=O)C(CC(C)C)C(S)CC(C)=O (single isomer, unassigned) [2 A] |
| – | 58% | CNC(=O)[C@H](Cc1ccc(OC)cc1)NC(=O)C(CC(C)C)C(S)CC(C)=O (some centres unmarked) [2 C/D] |
